System: Chinese Hamster Ovary cells (CHO-K1)
Test: Chromosome aberration assay
Type: cell-based
Settings: for Number of cells with structural aberrations (%) B: chromosome break / Number of cells with structural aberrations (%) e: exchange / Number of cells with structural aberrations (%) G: chromosome gap / Number of cells with structural aberrations (%) b: chromatid break / Aberrant cell (%) With gap / Aberrant cell (%) Without gap / Number of cells with structural aberrations (%) D: dicentric / Number of cells with structural aberrations (%) g: chromatid gap: Chinese hamster
Description: Chinese hamster ovary epithelial cells (CHO-K1, American Type Culture Collection, Manassas, VA, USA) were cultured in 6-cm dishes at a density of 2 × 10^5 cells/mL for chromosomal abnormality analysis. […] Colemid (0.1 μg/mL) was administered 3 h before trypsinization, followed by treatment with 0.9% sodium citrate at 37 °C and Carnoy’s solution (methanol:acetic acid, 3:1). The cells were stained with 3% Giemsa solution in 0.07 M phosphate buffer (pH 6.8) on glass slides. […] The data were expressed as the total mean number of chromosomal aberrations per treatment ± standard deviation (SD) from three independent experiments.

CC(C)(C)OC(=O)NC(Cc1ccc(OCc2ccccc2)cn1)C(=O)Nc1ccc(CCCC(=O)NO)cc1 (stereo not drawn) [AzP, Azatyrosine-phenylbutyric hydroxamides]
Chromosome aberration assay result: Negative | Number of cells with structural aberrations (%) B: chromosome break (3 h, 5 µg/mL): 0.00±0.00% | Number of cells with structural aberrations (%) e: exchange (3 h, 5 µg/mL): 0.00±0.00% | Number of cells with structural aberrations (%) B: chromosome break (3 h, 10 µg/mL): 0.00±0.00% | Number of cells with structural aberrations (%) G: chromosome gap (3 h, 10 µg/mL): 0.00±0.00% | Number of cells with structural aberrations (%) b: chromatid break (3 h, 10 µg/mL): 0.00±0.00% | Number of cells with structural aberrations (%) e: exchange (3 h, 10 µg/mL): 0.00±0.00% | Number of cells with structural aberrations (%) B: chromosome break (3 h, 20 µg/mL): 0.00±0.00% | Number of cells with structural aberrations (%) G: chromosome gap (3 h, 20 µg/mL): 0.00±0.00% | Aberrant cell (%) With gap (24 h, 5 µg/mL): 4.33±0.58% | Aberrant cell (%) Without gap (24 h, 5 µg/mL): 1.67±1.53% | Number of cells with structural aberrations (%) B: chromosome break (24 h, 5 µg/mL): 0.00±0.00% | Number of cells with structural aberrations (%) D: dicentric (24 h, 5 µg/mL): 0.33±0.58% | Number of cells with structural aberrations (%) G: chromosome gap (24 h, 5 µg/mL): 0.33±0.58% | Number of cells with structural aberrations (%) b: chromatid break (24 h, 5 µg/mL): 1.00±1.00% | Number of cells with structural aberrations (%) e: exchange (24 h, 5 µg/mL): 0.33±0.58% | Number of cells with structural aberrations (%) g: chromatid gap (24 h, 5 µg/mL): 2.33±1.53% | Aberrant cell (%) With gap (24 h, 10 µg/mL): 4.00±1.00% | Aberrant cell (%) Without gap (24 h, 10 µg/mL): 2.67±1.53% | Number of cells with structural aberrations (%) B: chromosome break (24 h, 10 µg/mL): 0.00±0.00% | Number of cells with structural aberrations (%) D: dicentric (24 h, 10 µg/mL): 0.67±0.58% | Number of cells with structural aberrations (%) G: chromosome gap (24 h, 10 µg/mL): 0.67±0.58% | Number of cells with structural aberrations (%) b: chromatid break (24 h, 10 µg/mL): 1.33±0.58% | Number of cells with structural aberrations (%) e: exchange (24 h, 10 µg/mL): 0.67±0.58% | Number of cells with structural aberrations (%) g: chromatid gap (24 h, 10 µg/mL): 1.33±0.58% | Aberrant cell (%) With gap (24 h, 20 µg/mL): 4.33±0.58% | Aberrant cell (%) Without gap (24 h, 20 µg/mL): 0.67±0.58% | Number of cells with structural aberrations (%) B: chromosome break (24 h, 20 µg/mL): 0.33±0.58% | Number of cells with structural aberrations (%) D: dicentric (24 h, 20 µg/mL): 0.00±0.00% | Number of cells with structural aberrations (%) G: chromosome gap (24 h, 20 µg/mL): 0.33±0.58% | Number of cells with structural aberrations (%) b: chromatid break (24 h, 20 µg/mL): 0.00±0.00% | Number of cells with structural aberrations (%) e: exchange (24 h, 20 µg/mL): 0.00±0.00% | Number of cells with structural aberrations (%) g: chromatid gap (24 h, 20 µg/mL): 3.33±0.58%

— article PMC6359543, “Efficacy of Azatyrosine-Phenylbutyric Hydroxamides, a Histone Deacetylase Inhibitor, on Chemotherapy-Induced Gastrointestinal Mucositis” (International Journal of Molecular Sciences, 2019)
